Measured values: patent publication US8466089B2, “Pyrazole compounds, process for their production and herbicides containing them” (Ishihara Sangyo Kaisha, Ltd., priority 2008, dated 2013)

Key:
Assay type in all cases: in vivo
[1] = system: redroot pigweed (Amaranthus retroflexus L.); assay: Test Example 1, foliar treatment in upland pots; conditions: 20th to 22nd day after application, visual, read-out: Growth inhibition rate (%) Redroot pigweed
Source text: (§1) Upland field soil was put into a 1/170,000 hectare pot, and seeds of various plants were sown. When the respective plants reached predetermined leaf stage ((1) barnyardgrass (Echinochloa crus-galli L.): 1.2 to 3.0 leaf stage, (2) crabgrass (Digitaria sanguinalis L.): 1.0 to 3.0 leaf stage, (3) green foxtail (Setaria viridis L.): 1.5 to 3.0 leaf stage, (4) redroot pigweed (Amaranthus retroflexus L.): cotyledon stage to 1.5 leaf stage, (5) prickly sida (Sida spinosa L.): cotyledon stage to 2.0 leaf stage, (6) velvetleaf (Abutilon theophrasti MEDIC.): cotyledon stage to 1.3 leaf stage, (7) rice (Oryza sativa L.): 1.2 to 2.5 leaf stage, (8) corn (Zea mays L.): 2.0 to 3.3 leaf stage, (9) soybean (Glycine max Merr.): primary leaf stage to 0.3 leaf stage) and wheat (Triticum spp.): 2.0 to 3.0 leaf stage, wettable powders or emulsifiable concentrates of the compounds of the present invention prepared in accordance with a conventional preparation method, were weighed so that the active ingredients became the prescribed amounts, and diluted with water in an amount corresponding to 500 liter per 1 hectare (containing 0.1 vol % of an agricultural spreader (“KUSARINOH”, manufactured by NIHON NOHYAKU CO., LTD.)). The spray solutions thus prepared were applied for foliar treatment by a small sprayer.
(§2) On the 20th to 22nd day after application, the state of growth of the respective plants was visually observed, and the herbicidal effect was evaluated by a growth inhibition rate (%) of 0 (equivalent to the non-treated area) to 100% (complete kill).

[2] = system: barnyardgrass (Echinochloa crus-galli L.); assay: Test Example 1, foliar treatment in upland pots; conditions: 20th to 22nd day after application, visual, read-out: Growth inhibition rate (%) Barnyardgrass
Source text: as §1, §2

[3] = system: velvetleaf (Abutilon theophrasti MEDIC.); assay: Test Example 1, foliar treatment in upland pots; conditions: 20th to 22nd day after application, visual, read-out: Growth inhibition rate (%) Velvetleaf
Source text: as §1, §2

[4] = system: crabgrass (Digitaria sanguinalis L.); assay: Test Example 1, foliar treatment in upland pots; conditions: 20th to 22nd day after application, visual, read-out: Growth inhibition rate (%) Crabgrass
Source text: as §1, §2

wheat (Triticum spp.) [5] = assay: Test Example 1, foliar treatment in upland pots; conditions: 20th to 22nd day after application, visual, read-out: Growth inhibition rate (%) Wheat
Source text: as §1, §2

[6] = system: soybean (Glycine max Merr.); assay: Test Example 1, foliar treatment in upland pots; conditions: 20th to 22nd day after application, visual, read-out: Growth inhibition rate (%) Soybean
Source text: as §1, §2

[7] = system: green foxtail (Setaria viridis L.); assay: Test Example 1, foliar treatment in upland pots; conditions: 20th to 22nd day after application, visual, read-out: Growth inhibition rate (%) Green foxtail
Source text: as §1, §2

corn (Zea mays L.) [8] = assay: Test Example 1, foliar treatment in upland pots; conditions: 20th to 22nd day after application, visual, read-out: Growth inhibition rate (%) Corn
Source text: as §1, §2

[9] = system: Japanese ribbon waparo (Sagittaria pygmaea); assay: Test Example 3, paddy field pot, application to irrigated water; conditions: applied at primary leaf stage, 13th to 17th day after application, read-out: Growth inhibition rate (%) Japanese ribbon waparo
Source text: (§3) Paddy field soil was put into a 1/1,000,000 hectare pot, and seeds of barnyardgrass (Echinochloa oryzicola vasing.) and Japanese bulrush (Scirpus juncoides) were sown and lightly covered with soil. Then, pot was left to stand in a greenhouse in a state irrigated to a water depth of from 0.5 to 1 cm, and next day or two days later, tubers of Japanese ribbon waparo (Sagittaria pygmaea) were planted. Then, the irrigated water depth was maintained to be from 3 to 4 cm, and when barnyardgrass and Japanese bulrush reached 0.5 leaf stage, and Japanese ribbon waparo reached primary leaf stage, a water diluted solution of a wettable powder or an emulsifiable concentrate of the compound of the present invention prepared in accordance with a conventional preparation method, was uniformly dropwise applied by a pipette so that the amount of active ingredients would be a prescribed amount. Further, paddy field soil was put into a 1/1,000,000 pot, followed by soil puddling to an irrigated water depth of from 3 to 4 cm. Next day, rice (Oryza sativa L.) (var.: Nihonbare) of two leaf stage was transplanted in a transplantation depth of 3 cm. On the 4th day after transplantation, the compound of the present invention was applied in the same manner as described above.
(§4) On the 13th to 17th day after application, the state of growth of barnyardgrass, Japanese bulrush and Japanese ribbon waparo was visually observed, and on the 20th to 23rd day after application, the state of growth of rice was visually observed, and the herbicidal effect was evaluated by a growth inhibition rate (%) of 0 (equivalent to the non-treated area) to 100% (complete kill).

[10] = system: Japanese bulrush (Scirpus juncoides); assay: as above; conditions: Schoenoplectiella juncoides, applied at 0.5 leaf stage, 13th to 17th day after application, read-out: Growth inhibition rate (%) Japanese bulrush
Source text: as §3, §4

[11] = system: barnyardgrass (Echinochloa oryzicola vasing.); assay: as above; conditions: applied at 0.5 leaf stage, 13th to 17th day after application, read-out: Growth inhibition rate (%) barnyard grass
Source text: as §3, §4

[12] = system: redroot pigweed (Amaranthus retroflexus L.); assay: Test Example 2, soil application on the day after sowing; conditions: 21st to 22nd day after application, visual, read-out: Growth inhibition rate (%) Redroot pigweed
Source text: (§5) Upland field soil was put into a 1/170,000 hectare pot, and seeds of various plants (barnyardgrass (Echinochloa crus-galli L.), crabgrass (Digitaria sanquinalis L.), green foxtail (Setaria viridis L.), redroot pigweed (Amaranthus retroflexus L.), prickly sida (Sida spinosa L.), velvetleaf (Abutilon theophrasti MEDIC.), rice (Oryza sativa L.), corn (Zea mays L.), soybean (Glycine max Merr.)) and wheat (Triticum spp.) were sown. On the day after sowing, wettable powders or emulsifiable concentrates of the compounds of the present invention prepared in accordance with a conventional preparation method, were weighed so that the active ingredients became the prescribed amounts, and diluted with water in an amount corresponding to 500 liter per 1 hectare, followed by soil application with a small sprayer.
(§6) On the 21st to 22nd day after the application, the state of growth of the respective plants was visually observed, and the herbicidal effect was evaluated by a growth inhibition rate (%) of from 0 (equivalent to the non-treated area) to 100% (complete kill).

[13] = system: barnyardgrass (Echinochloa crus-galli L.); assay: as above; conditions: 21st to 22nd day after application, visual, read-out: Growth inhibition rate (%) Barnyardgrass
Source text: as §5, §6

rice (Oryza sativa L.) [14] = assay: as above; conditions: 21st to 22nd day after application, visual, read-out: Growth inhibition rate (%) Rice
Source text: as §5, §6

[15] = system: velvetleaf (Abutilon theophrasti MEDIC.); assay: as above; conditions: 21st to 22nd day after application, visual, read-out: Growth inhibition rate (%) Velvetleaf
Source text: as §5, §6

[16] = system: prickly sida (Sida spinosa L.); assay: as above; conditions: 21st to 22nd day after application, visual, read-out: Growth inhibition rate (%) Prickly sida
Source text: as §5, §6

[17] = system: crabgrass (Digitaria sanquinalis L.); assay: as above; conditions: 21st to 22nd day after application, visual, read-out: Growth inhibition rate (%) Crabgrass
Source text: as §5, §6

wheat (Triticum spp.) [18] = assay: as above; conditions: 21st to 22nd day after application, visual, read-out: Growth inhibition rate (%) Wheat
Source text: as §5, §6

[19] = system: soybean (Glycine max Merr.); assay: as above; conditions: 21st to 22nd day after application, visual, read-out: Growth inhibition rate (%) Soybean
Source text: as §5, §6

[20] = system: green foxtail (Setaria viridis L.); assay: as above; conditions: 21st to 22nd day after application, visual, read-out: Growth inhibition rate (%) Green foxtail
Source text: as §5, §6

corn (Zea mays L.) [21] = assay: as above; conditions: 21st to 22nd day after application, visual, read-out: Growth inhibition rate (%) Corn
Source text: as §5, §6

[22] = system: rice (Oryza sativa L.) (var.: Nihonbare); assay: Test Example 3, paddy field pot, transplanted rice; conditions: applied 4th day after transplantation, 20th to 23rd day after application, read-out: Growth inhibition rate (%) Rice
Source text: as §3, §4

rice (Oryza sativa L.) [23] = assay: Test Example 1, foliar treatment in upland pots; conditions: 20th to 22nd day after application, visual, read-out: Growth inhibition rate (%) Rice
Source text: as §1, §2

[24] = system: prickly sida (Sida spinosa L.); assay: Test Example 1, foliar treatment in upland pots; conditions: 20th to 22nd day after application, visual, read-out: Growth inhibition rate (%) Prickly sida
Source text: as §1, §2

| Structure (SMILES) | inhibition at 7 g/ha [1] | inhibition at 7 g/ha [2] | inhibition at 7 g/ha [3] | inhibition at 7 g/ha [4] | inhibition at 7 g/ha (wheat (Triticum spp.) [5]) | inhibition at 7 g/ha [6] | inhibition at 7 g/ha [7] | inhibition at 63 g/ha [9] | inhibition at 63 g/ha [10] | inhibition at 63 g/ha [11] | inhibition at 250 g/ha [12] | inhibition at 250 g/ha [13] | inhibition at 250 g/ha (rice (Oryza sativa L.) [14]) | inhibition at 250 g/ha [15] | inhibition at 250 g/ha [16] | inhibition at 250 g/ha [17] | inhibition at 250 g/ha (wheat (Triticum spp.) [18]) | inhibition at 250 g/ha [19] | inhibition at 250 g/ha [20] | inhibition at 63 g/ha [22] | other results |
| --- | --- | --- | --- | --- | --- | --- | --- | --- | --- | --- | --- | --- | --- | --- | --- | --- | --- | --- | --- | --- | --- |
| CCOCc1c(S(C)(=O)=O)ccc(C(=O)c2cnn(C)c2OC(C)OC(=O)OCC)c1C (stereo not shown) [Compound No. 1-4, 1-(4-(3-(Ethoxymethyl)-2-methyl-4-(methylsulfonyl)benzoyl)-1-methyl-1H-pyrazol-5-yloxy)ethyl ethyl carbonate] | 80% | 95% | 80% | 95% | 0% | 80% | 75% | 70% | 60% | 100% | 98% | 98% | 60% | 100% | 90% | 80% | 0% | 40% | 80% | 20% | inhibition at 7 g/ha (corn (Zea mays L.) [8]): 0%; inhibition at 250 g/ha (corn (Zea mays L.) [21]): 0% |
| CCOCc1c(S(C)(=O)=O)ccc(C(=O)c2cnn(C)c2OC(C)OC(=O)OC)c1C (stereo not shown) [Compound No. 1-1, 1-(4-(3-(Ethoxymethyl)-2-methyl-4-(methylsulfonyl)benzoyl)-1-methyl-1H-pyrazol-5-yloxy)ethyl methyl carbonate] | 60% | 95% | 50% | 90% | 0% | 70% | 60% | 90% | 70% | 100% | 90% | 100% | 95% | 98% | 90% | 100% | 20% | 20% | 98% | 10% | inhibition at 7 g/ha (rice (Oryza sativa L.) [23]): 20%; inhibition at 250 g/ha (corn (Zea mays L.) [21]): 10% |
| CCn1ncc(C(=O)c2ccc(S(C)(=O)=O)c(C(=O)OC)c2C)c1OC(C)OC(=O)OC (stereo not shown) [Compound No. 2-2, Methyl 3-(5-(1-(methoxycarbonyloxy)ethoxy)-1-ethyl-1H-pyrazole-4-carbonyl)-2-methyl-6-(methylsulfonyl)benzoate] | 98% | 98% | 95% | 80% | 0% | – | 80% | 90% | 80% | 100% | – | – | – | – | – | – | – | – | – | 80% | inhibition at 7 g/ha (rice (Oryza sativa L.) [23]): 50%; inhibition at 7 g/ha [24]: 70%; inhibition at 7 g/ha (corn (Zea mays L.) [8]): 0% |
| COCc1c(S(C)(=O)=O)ccc(C(=O)c2cnn(C)c2OC(C)OC(=O)OC)c1C (stereo not shown) [Compound No. 1-3, 1-(4-(3-(Methoxymethyl)-2-methyl-4-(methylsulfonyl)benzoyl)-1-methyl-1H-pyrazol-5-yloxy)ethyl methyl carbonate] | 80% | 90% | 75% | 95% | 0% | 70% | 80% | 70% | 70% | 100% | 98% | 98% | 98% | 100% | 95% | 98% | 10% | 60% | 98% | 40% | inhibition at 7 g/ha (rice (Oryza sativa L.) [23]): 60%; inhibition at 250 g/ha (corn (Zea mays L.) [21]): 20% |
